{
  "source": "BindingDB's records for doi:10.1038/nchembio.1603",
  "about": "(Glaxosmithkline, 2014)",
  "biological_target": "Fatty acid synthase (Homo sapiens, UniProt P49327)",
  "sequence (P49327 whole entry)": "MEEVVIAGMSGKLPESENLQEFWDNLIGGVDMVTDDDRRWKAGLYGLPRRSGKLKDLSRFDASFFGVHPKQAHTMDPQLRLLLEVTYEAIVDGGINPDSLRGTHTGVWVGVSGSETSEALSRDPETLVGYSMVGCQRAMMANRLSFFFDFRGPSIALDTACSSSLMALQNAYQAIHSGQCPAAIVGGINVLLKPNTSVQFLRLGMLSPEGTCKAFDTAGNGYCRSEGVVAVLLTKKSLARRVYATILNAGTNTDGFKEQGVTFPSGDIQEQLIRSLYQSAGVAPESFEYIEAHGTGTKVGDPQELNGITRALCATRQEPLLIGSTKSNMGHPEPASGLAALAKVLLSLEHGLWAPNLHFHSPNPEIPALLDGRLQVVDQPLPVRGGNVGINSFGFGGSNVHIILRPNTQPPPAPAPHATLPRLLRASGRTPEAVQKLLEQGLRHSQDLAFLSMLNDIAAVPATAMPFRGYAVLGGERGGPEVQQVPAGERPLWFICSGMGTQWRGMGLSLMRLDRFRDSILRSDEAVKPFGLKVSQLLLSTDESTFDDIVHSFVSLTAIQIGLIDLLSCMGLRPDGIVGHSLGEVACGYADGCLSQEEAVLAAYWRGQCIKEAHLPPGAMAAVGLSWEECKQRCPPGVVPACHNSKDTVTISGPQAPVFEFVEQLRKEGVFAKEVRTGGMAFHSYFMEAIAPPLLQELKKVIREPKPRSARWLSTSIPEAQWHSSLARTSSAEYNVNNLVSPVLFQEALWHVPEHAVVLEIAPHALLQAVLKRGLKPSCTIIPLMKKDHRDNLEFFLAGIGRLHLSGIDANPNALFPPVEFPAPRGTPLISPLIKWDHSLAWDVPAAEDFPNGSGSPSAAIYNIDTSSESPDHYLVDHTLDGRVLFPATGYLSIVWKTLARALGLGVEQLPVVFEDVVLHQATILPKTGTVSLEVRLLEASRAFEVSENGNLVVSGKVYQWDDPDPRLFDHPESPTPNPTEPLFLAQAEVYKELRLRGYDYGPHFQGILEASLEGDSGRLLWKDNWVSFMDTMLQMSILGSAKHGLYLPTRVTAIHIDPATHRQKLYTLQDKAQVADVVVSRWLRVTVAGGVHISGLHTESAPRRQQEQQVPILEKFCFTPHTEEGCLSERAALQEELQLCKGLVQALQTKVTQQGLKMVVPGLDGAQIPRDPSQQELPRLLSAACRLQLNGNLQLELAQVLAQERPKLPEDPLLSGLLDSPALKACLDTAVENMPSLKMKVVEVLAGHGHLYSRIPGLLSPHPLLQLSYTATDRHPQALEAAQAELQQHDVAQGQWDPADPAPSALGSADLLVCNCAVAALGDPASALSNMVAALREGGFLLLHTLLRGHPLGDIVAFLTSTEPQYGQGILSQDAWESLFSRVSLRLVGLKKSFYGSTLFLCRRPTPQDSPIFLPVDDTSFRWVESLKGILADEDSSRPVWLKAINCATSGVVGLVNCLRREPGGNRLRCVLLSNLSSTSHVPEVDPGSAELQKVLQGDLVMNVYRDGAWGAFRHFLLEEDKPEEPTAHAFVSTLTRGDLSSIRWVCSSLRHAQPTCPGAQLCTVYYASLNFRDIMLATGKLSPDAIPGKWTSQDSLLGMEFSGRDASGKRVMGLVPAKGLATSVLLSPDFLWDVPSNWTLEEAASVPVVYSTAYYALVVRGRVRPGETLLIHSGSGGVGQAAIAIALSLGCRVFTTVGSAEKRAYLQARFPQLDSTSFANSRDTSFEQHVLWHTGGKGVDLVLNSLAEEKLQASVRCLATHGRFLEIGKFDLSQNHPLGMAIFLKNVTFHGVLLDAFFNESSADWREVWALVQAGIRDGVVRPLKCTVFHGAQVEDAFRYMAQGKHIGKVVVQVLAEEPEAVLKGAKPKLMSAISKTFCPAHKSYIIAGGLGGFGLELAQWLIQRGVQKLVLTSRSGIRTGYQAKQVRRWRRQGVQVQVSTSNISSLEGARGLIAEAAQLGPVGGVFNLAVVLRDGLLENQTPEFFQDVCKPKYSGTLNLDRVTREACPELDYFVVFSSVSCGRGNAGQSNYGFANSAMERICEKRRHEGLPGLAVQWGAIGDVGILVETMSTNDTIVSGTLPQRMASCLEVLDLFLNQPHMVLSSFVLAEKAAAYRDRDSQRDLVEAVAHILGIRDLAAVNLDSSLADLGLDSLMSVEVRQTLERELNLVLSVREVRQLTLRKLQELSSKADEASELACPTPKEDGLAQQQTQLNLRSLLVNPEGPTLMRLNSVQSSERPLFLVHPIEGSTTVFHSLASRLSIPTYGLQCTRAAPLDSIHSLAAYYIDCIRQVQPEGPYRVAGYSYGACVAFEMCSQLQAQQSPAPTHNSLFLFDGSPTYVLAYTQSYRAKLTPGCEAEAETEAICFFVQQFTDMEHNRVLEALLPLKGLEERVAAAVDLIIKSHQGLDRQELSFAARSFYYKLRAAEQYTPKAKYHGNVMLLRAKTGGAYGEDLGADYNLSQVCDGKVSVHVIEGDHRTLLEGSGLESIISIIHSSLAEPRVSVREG",
  "assay": "FAS Assay No1",
  "description": "Inhibition of FAS by benzimidazole was measured by an endpoint assay for NADPH consumption.",
  "data": [
    {"smiles": "CNC(=O)c1ccc2nc(-c3ccc(-c4ccccc4)cc3)n(CC3CCN(C(=O)C4CC4)C3)c2c1", "note": "(stereo unspecified) [2-([1,1'-Biphenyl]-4-yl)-1-((1-(cyclopropanecarbonyl)pyrrolidin-3-yl)methyl)-N-methyl-1H-benzo[d]imidazole-6-carboxamide]", "values": [
      {"measurement": "IC50", "value": 1, "unit": "µM"}
    ]}
  ]
}
